Source: patent US20250109140A1, “5-[5-(PIPERIDIN-4-YL)THIENO[3,2-C]PYRAZOL-2-YL]INDAZOLE DERIVATIVES AND RELATED COMPOUNDS AS MODULATORS FOR SPLICING NUCLEIC ACIDS AND FOR THE TREATMENT OF PROLIFERATIVE DISEASES” (REMIX THERAPUTICS INC., priority 2022, published 2025)
Where two headings read alike, the source gives them in different places.

Assays:
[1] = tested on: Target C; experiment: HiBiT protein abundance assay, Target C (K562 HiBiT knock-in cells); format: cell-based, human; conditions: 24 hours treatment
Procedure: • Promega Nano-Glo HiBiT Lytic Detection System (cat #N3030) • Corning 384-well TC-treated microplates (cat #3570) • Synthego Engineered Cells Knock-In Clones
(§1) Cells were maintained in IMDM with 10% FBS. Before the assay, cells were diluted with […] growth media (IMDM+[…] media) and were seeded in a 384-well plate at a density of 10000 cells/well (for each cell line listed in Table 6). Each compound was prepared as a 10-point 3-fold serial dilution in DMSO with the top dose at a final concentration of […] in the well. Unmodified K562 cells were added at the previously specified density with DMSO to serve as an assay baseline and positive control (PC) and DMSO only with the respective modified cell lines was added to the negative control (NC) columns. Final DMSO concentration was kept at or below 0.25%. Treated cell plates were placed in an incubator at 37° C. with […] for 24 hours. After 24 hours, 25 μL of Complete HiflitLytic reagent was added to each well at room temperature (e.g. one plate requiring 10 mL Lytic Buffer, 100 μL LgBiT Protein, 200 μL Lytic Substrate), shaken for 5 minutes at 600 RPM, then left to sit for 10 minutes for signal to stabilize before reading on a Spark Cyto plate reader (Tecan) with a 500 ms measurement time.
(§2) To determine compound effects on protein abundance of each target in Table 6, the percent response for each respective cell line was calculated at each compound concentration as follows:
(§3) For the normalized response at each concentration, a four-parameter logistical regression was fit to the data and the response was interpolated at the 50% value to determine a concentration for protein abundance at 50% (IC50) the untreated control.

[2] = tested on: Target C mRNA; experiment: Splicing RT-qPCR gene panel, Target C canonical junction (CJ) mRNA; format: cell-based; conditions: Homo sapiens; Table 8; larger gene panel, decrease in CJ mRNA levels
Summary of the method: (§4)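 Readout is RT-qPCR of CJ and AJ mRNA in lysates from A673 or K562 cells given an 11-point titration (top dose 10 uM final, DMSO at most 0.25%) for 24 hours. Data were normalized to GAPDH, GUSB or PPIA, then to DMSO.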

[3] = tested on: HiBiT-tagged HTT protein; experiment: HiBiT protein abundance assay, HTT (K562 HiBiT knock-in cells); format: cell-based, human; conditions: 24 hours treatment
Procedure: (§5) Compounds described herein were used to screen for effects on quantitative protein abundance using a HiBit assay system (Promega). Quantitative protein abundance was determined by measuring the protein levels of HiBit-tagged protein targets expressed in cell culture via luminescence using the Nano-Glo HiBiT Lytic Detection System, which uses a split complementation assay format to reconstitute NanoBiT enzyme to generate a luminescent signal. A protein abundance assay was developed such that endogenous protein targets could be modified with the HiBiT peptide tag and their abundance could be assessed after compound treatment. Briefly, K562 cell lines containing a HiBiT-modification were treated with various compounds described herein (e.g., compounds of Formulas (I), or (II)). After treatment for 24 hours, the protein abundance of a specific target was determined by measuring luminescence.
as §1, §2, §3

[4] = tested on: MYB mRNA; experiment: Splicing RT-qPCR assay, MYB canonical (CJ) and alternative (AJ) junction mRNA; format: cell-based; conditions: Homo sapiens; for EC50: AC50 = 50% response in AJ mRNA increase
Summary of the method: as §4

[5] = tested on: HiBiT-tagged MYB protein; experiment: HiBiT protein abundance assay, MYB (K562 HiBiT knock-in cells); format: cell-based, human; conditions: 24 hours treatment
Procedure: as §5, §1, §2, §3

[6] = tested on: K562 (human chronic myelogenous leukemia) cells; experiment: Cell viability, Cell Titer Glo 2.0 assay, K562 cells; format: cell-based; conditions: 72 hours
Procedure: Compounds described herein were screened for toxicity in K562 (human chronic myelogenous leukemia) and SH-SY5Y (human neuroblastoma) cells using a Cell Titer Glo 2.0 assay.
Cells were plated at 500 cells/well (K562 cells) in 45 μL of IMDM supplemented with 10% FBS in a 384-well opaque plate. Wells containing only medium were used as a blank control. Test compounds (e.g., compounds of Formula (I), (III), (IV), (V), or (VI)) were first serially diluted in DMSO then diluted 1:100 with IMDM+10% FBS. The final concentration of DMSO was 0.1% in each well. The cells were incubated for 72 hours at 37° C. and 5% CO2 before assaying with Cell Titer Glo 2.0 reagent.

[7] = tested on: SMN2 mRNA; experiment: Splicing RT-qPCR gene panel, SMN2 canonical junction (CJ) mRNA; format: cell-based; conditions: Homo sapiens; Table 8; larger gene panel, decrease in CJ mRNA levels
Summary of the method: as §4

[8] = tested on: HTT mRNA; experiment: Splicing RT-qPCR assay, HTT canonical (CJ) and alternative (AJ) junction mRNA; format: cell-based; conditions: Homo sapiens; for EC50: AC50 = 50% response in AJ mRNA increase
Summary of the method: as §4

[9] = Table 7, RT-qPCR, A673 or K562 cells, 24 hours treatment
[10] = Table 7, IC50 = 50% response in CJ mRNA decrease, RT-qPCR, A673 or K562 cells, 24 hours treatment, read-out: MYB CJ
[11] = Table 8, larger gene panel, decrease in CJ mRNA levels, read-out: MYB CJ IC50
[12] = Table 7, IC50 = 50% response in CJ mRNA decrease, RT-qPCR, A673 or K562 cells, 24 hours treatment, read-out: HTT CJ
[13] = Table 8, larger gene panel, decrease in CJ mRNA levels, read-out: HTT CJ IC50

Row | SMILES | IC50 [1] [nM] | IC50 [2] [µM] | IC50 [3] [nM] | EC50 [4, 9] [µM] | IC50 [4, 10] [µM] | IC50 [4, 11] [µM] | IC50 [5] [nM] | IC50 [6] [µM] | IC50 [7] [nM] | EC50 [8, 9] [nM] | IC50 [8, 12] [nM] | IC50 [8, 13] [nM]
1 | Cc1cn2cc(-n3cc4sc(C5CCNCC5)cc4n3)cc(F)c2n1 [Compound 166, 4-(2-{8-fluoro-2-methylimidazo[1,2-a]pyridin-6-yl}thieno[3,2-c]pyrazol-5-yl)piperidine] | 100 to 1000 | 1 to 10 | 100 to 1000 | 1 to 10 | 1 to 10 | 1 to 10 | 100 to 1000 | 1 to 10 | 100 to 1000 | 100 to 1000 | 100 to 1000 | 100 to 1000
2 | Cc1nc2c(F)cc(-n3cc4sc(C5CCNCC5)cc4n3)cc2o1 [Compound 167] | 100 to 1000 | 1 to 10 | 100 to 1000 | 1 to 10 | 1 to 10 | 1 to 10 | 100 to 1000 | 1 to 10 | 100 to 1000 | 100 to 1000 | 100 to 1000 | 100 to 1000
3 | Cc1nc2c(F)cc(-n3cc4sc(C5CCNCC5)cc4n3)cc2s1 [Compound 168] | 1000 to 10000 | > 10 | 1000 to 10000 | 1 to 10 | > 10 | 1 to 10 | 1000 to 10000 | 1 to 10 | 100 to 1000 | 1000 to 10000 | 1000 to 10000 | 1000 to 10000
4 | Cc1cn2cc(-n3cc4sc(C5CCNCC5)cc4n3)ncc2n1 [Compound 169] | 1000 to 10000 | 1 to 10 | 1000 to 10000 | 1 to 10 | 1 to 10 | 1 to 10 | 1000 to 10000 | 1 to 10 | 1000 to 10000 | 1000 to 10000 | 1000 to 10000 | 1000 to 10000
5 | Cc1cn2nc(-n3cc4sc(C5CCNCC5)cc4n3)nc2c(C)n1 [Compound 170] | 1000 to 10000 | 1 to 10 | 1000 to 10000 | 1 to 10 | 1 to 10 | 1 to 10 | 1000 to 10000 | 1 to 10 | 1000 to 10000 | 1000 to 10000 | 1000 to 10000 | 1000 to 10000
6 | Cc1cn2nc(-n3cc4sc(C5CCNCC5)cc4n3)cc2c(C)n1 [Compound 171] | 100 to 1000 | 1 to 10 | 100 to 1000 | 1 to 10 | 1 to 10 | 1 to 10 | 100 to 1000 | 1 to 10 | 100 to 1000 | 100 to 1000 | 100 to 1000 | 100 to 1000
7 | Cc1cn2cc(-n3cc4sc(C5CCNCC5)cc4n3)cc(Cl)c2n1 [Compound 172] | 100 to 1000 | 1 to 10 | 100 to 1000 | 0.1 to 1 | 1 to 10 | 0.1 to 1 | 1000 to 10000 | 1 to 10 | 100 to 1000 | 100 to 1000 | 100 to 1000 | 100 to 1000
8 | Cn1cc2c(F)cc(-n3cc4cc(C5CCNCC5)sc4n3)cc2n1 [Compound 174] | > 10000 | > 10 | 1000 to 10000 | > 10 | > 10 | > 10 | 1000 to 10000 | 1 to 10 | 1000 to 10000 | > 10000 | > 10000 | > 10000
9 | Cn1cc2c(F)cc(-n3cc4sc(C5CCNCC5)cc4n3)cc2n1 [Compound 175] | 1000 to 10000 | > 10 | 1000 to 10000 | > 10 | > 10 | > 10 | 1000 to 10000 | 1 to 10 | > 10000 | > 10000 | > 10000 | > 10000
10 | c1n[nH]cc1-n1cc2sc(C3CCNCC3)cc2n1 [Compound 176] | > 10000 | > 10 | > 10000 | > 10 | > 10 | > 10 | > 10000 | > 10 | > 10000 | > 10000 | > 10000 | > 10000
11 | Cn1cc2cc(-c3cc4cn(C5=CCOCC5)nc4s3)cc(F)c2n1 [Compound 177] | > 10000 | > 10 | > 10000 | > 10 | > 10 | > 10 | > 10000 | > 10 | > 10000 | > 10000 | > 10000 | > 10000
12 | Cn1cc2cc(-n3cc4sc(C5CCNCC5)cc4n3)c(O)cc2n1 [Compound 178] | 1000 to 10000 | 1 to 10 | 1000 to 10000 | 1 to 10 | 1 to 10 | 1 to 10 | 1000 to 10000 | 1 to 10 | 1000 to 10000 | 1000 to 10000 | 1000 to 10000 | 1000 to 10000
